5 compounds from ChEMBL document CHEMBL1201862, “PubChem BioAssay data set” (2004) can be followed below.

Active and inactive are the calls of the source.

The test system of assay [1] is HEK293. Put plainly: cells. It counts as functional, cell-based. Particulars: Homo sapiens.
Assay [2] deals with T1, Nuclear receptor subfamily 0 group B member 1 (Homo sapiens, UniProt P51843).
T1 sequence (P51843 whole entry): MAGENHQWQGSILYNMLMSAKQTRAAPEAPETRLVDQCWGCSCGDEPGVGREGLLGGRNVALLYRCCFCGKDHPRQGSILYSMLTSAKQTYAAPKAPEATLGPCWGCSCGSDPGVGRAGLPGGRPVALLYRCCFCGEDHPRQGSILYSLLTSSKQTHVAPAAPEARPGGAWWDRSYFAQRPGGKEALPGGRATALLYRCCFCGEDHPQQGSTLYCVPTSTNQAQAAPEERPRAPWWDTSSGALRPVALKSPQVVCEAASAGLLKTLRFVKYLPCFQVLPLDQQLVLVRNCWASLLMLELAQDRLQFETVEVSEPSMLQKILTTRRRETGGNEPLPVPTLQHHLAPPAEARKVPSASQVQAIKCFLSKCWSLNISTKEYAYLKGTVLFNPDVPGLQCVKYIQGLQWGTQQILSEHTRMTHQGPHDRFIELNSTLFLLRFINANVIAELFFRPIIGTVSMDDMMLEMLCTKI
Nature of the assay: Luminescence-based cell-based high throughput dose response assay for inhibitors of the orphan nuclear receptor subfamily 0, group B, member 1 (DAX1; NR0B1). [Related pubchem assays (depositor defined):AID504766, AID504790]. It counts as functional.

Assay [3] is described as follows: Luminescence Cell-Based Dose Confirmation HTS to Identify Activators of 5'UTR Stem-Loop Driven Alpha-Synuclein mRNA Translation in H4 Neuroglioblastoma Cells. [Related pubchem assays: 1829 (Project Summary), 1814 (Primary HTS)]. It is filed as functional.
The test system of another assay is H4. Nature of the assay: Luminescence Cell-Based Dose Response HTS to Identify Activators of 5'UTR Stem-Loop Driven Prion Protein mRNA Translation in H4 Neuroglioblastoma Cells. [Related pubchem assays: 1829 (Project Summary), 1814 (Primary HTS)]. It counts as functional. Particulars: Homo sapiens.
The nature of assay [4]: cells. It counts as functional, cell-based.
Assay [5] can be described thus: cells. It is filed as functional, cell-based. The source holds these as a separate data set.
Assay [6] is described as follows: Luminescence Cell-Based Dose Response HTS to Identify Activators of Luciferase Translation or Activity in H4 […] Cells. [Related pubchem assays: 1829 (Project Summary), 1814 (Primary HTS)]. It is filed as functional.
The next assay has as its system HT-1080. Nature of the assay: HT1080 cell viability loss – fluorescence readout (AID 620). It is filed as functional, cell-based. The following applies: Homo sapiens.
The target in assay [7] is DNA dC->dU-editing enzyme APOBEC-3A (Homo sapiens, UniProt P31941). Nature of the assay: Dose Response confirmation of small molecule APOBEC3A DNA Deaminase Inhibitors via a fluorescence-based single-stranded DNA deaminase assay. [Related pubchem assays (depositor defined):AID493011, AID493024]. It counts as functional.
DNA dC->dU-editing enzyme APOBEC-3A, sequence (P31941 whole entry): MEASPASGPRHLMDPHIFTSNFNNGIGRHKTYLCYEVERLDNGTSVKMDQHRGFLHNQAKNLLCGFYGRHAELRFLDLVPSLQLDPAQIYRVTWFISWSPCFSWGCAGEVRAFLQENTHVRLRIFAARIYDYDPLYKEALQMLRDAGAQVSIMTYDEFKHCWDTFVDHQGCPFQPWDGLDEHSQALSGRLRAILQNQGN
Assay [8] deals with Luciferin 4-monooxygenase (Photinus pyralis, UniProt P08659). Nature of the assay: Counter Screen for Luciferase-based Assay Positives. [Related pubchem assays: 620, 618, 411 ].
Luciferin 4-monooxygenase, sequence (P08659 whole entry): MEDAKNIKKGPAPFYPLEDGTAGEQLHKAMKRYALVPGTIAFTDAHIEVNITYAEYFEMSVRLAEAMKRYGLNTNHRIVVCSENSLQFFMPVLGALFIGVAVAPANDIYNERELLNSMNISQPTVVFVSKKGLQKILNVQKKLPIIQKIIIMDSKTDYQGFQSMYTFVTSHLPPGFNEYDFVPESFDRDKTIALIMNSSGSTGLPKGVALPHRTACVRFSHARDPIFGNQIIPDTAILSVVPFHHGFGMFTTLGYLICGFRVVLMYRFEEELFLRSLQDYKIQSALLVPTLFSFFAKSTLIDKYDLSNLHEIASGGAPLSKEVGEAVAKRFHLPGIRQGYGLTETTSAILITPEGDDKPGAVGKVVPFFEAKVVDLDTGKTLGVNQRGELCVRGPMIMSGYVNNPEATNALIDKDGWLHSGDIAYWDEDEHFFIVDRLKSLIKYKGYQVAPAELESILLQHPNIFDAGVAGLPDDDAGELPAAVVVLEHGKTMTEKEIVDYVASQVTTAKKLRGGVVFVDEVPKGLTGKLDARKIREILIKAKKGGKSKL
For assay [9], the target named is T2, Microphthalmia-associated transcription factor (Homo sapiens, UniProt O75030).
T2 sequence (O75030 whole entry): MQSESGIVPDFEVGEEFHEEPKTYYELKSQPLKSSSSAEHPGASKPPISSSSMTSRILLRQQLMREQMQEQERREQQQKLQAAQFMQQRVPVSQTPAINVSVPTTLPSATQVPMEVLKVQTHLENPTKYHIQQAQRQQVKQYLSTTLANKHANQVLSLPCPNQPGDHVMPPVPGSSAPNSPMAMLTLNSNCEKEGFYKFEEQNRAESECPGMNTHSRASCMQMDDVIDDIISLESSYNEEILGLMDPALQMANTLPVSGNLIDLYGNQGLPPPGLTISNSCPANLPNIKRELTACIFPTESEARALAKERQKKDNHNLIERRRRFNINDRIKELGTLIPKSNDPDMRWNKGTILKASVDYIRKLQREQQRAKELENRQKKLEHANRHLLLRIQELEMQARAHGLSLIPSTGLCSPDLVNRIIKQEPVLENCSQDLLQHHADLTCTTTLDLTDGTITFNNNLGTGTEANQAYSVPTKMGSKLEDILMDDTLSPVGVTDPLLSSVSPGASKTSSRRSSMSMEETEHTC
Put plainly: reducers of TRPM1 reporter luminescence, concentration series – cell-based, SK-MEL-5, cherry-picked, set 3, MITF inhibitor project, dose response (AID 493073).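 Note: SK-MEL-5 melanoma cells with luciferase driven by the MITF target TRPM1 promoter.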 It is filed as functional.

Assay [10] concerns the target DNA dC->dU-editing enzyme APOBEC-3G (Homo sapiens, UniProt Q9HC16). It is filed as functional.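 Note: Dose-response counterscreen measuring inhibition of APOBEC3G DNA deaminase activity, run while confirming APOBEC3A inhibitors.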
Assay [11] has as its system HEK293. Nature of the assay: SAR Analysis of small molecule inhibitors of T-cell specific antigen receptor-induced NF-kB activation in a HEK-293T cell line using a luminescence assay - Set 2. [Related pubchem assays (depositor defined):AID435003, AID435012, AID489026]. It is filed as functional, cell-based. The following applies: Homo sapiens.
Assay [12] concerns HEK293. Put plainly: HEK293T cell viability loss, resazurin readout – resazurin fluorescence, cytotoxicity control for NF-kB activator project, SAR follow-up (AID 493251). It counts as functional, cell-based. Particulars: Homo sapiens.
For another assay, the system named is Jurkat. Nature of the assay: SAR Analysis of small molecule inhibitors of T-cell specific antigen receptor-induced NF-kB activation in a Jurkat cell line using a luminescence assay - Set 2. [Related pubchem assays (depositor defined):AID435003, AID435012, AID465]. It is filed as functional, cell-based. The following applies: Homo sapiens.
The target in assay [13] is T3, Oxysterols receptor LXR-beta (Homo sapiens, UniProt P55055).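 Note: agonist activity at LXR measured by a cell-based luminescence readout across a dose range, run as a counterscreen for daf-12 agonists; HEK293 cells with Gal4-LXR fusion and GAL4-driven luciferase reporter; potency for activation of Gal4-LXR reporter so compounds are agonists.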
T3 sequence (P55055 whole entry): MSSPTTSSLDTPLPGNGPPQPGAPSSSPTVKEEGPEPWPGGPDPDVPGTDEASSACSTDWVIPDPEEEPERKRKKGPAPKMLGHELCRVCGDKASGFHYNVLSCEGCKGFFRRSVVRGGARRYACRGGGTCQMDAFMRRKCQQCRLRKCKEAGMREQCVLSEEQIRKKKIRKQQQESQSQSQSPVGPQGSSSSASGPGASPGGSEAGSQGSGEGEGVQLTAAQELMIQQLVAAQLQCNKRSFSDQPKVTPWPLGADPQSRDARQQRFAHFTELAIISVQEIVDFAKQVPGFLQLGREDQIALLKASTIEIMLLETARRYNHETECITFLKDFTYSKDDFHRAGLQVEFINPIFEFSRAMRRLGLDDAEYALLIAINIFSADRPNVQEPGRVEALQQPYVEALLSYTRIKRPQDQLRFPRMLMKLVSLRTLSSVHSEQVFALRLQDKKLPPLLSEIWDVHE
It is filed as functional, cell-based.

DNA dC->dU-editing enzyme APOBEC-3G, sequence (Q9HC16 whole entry): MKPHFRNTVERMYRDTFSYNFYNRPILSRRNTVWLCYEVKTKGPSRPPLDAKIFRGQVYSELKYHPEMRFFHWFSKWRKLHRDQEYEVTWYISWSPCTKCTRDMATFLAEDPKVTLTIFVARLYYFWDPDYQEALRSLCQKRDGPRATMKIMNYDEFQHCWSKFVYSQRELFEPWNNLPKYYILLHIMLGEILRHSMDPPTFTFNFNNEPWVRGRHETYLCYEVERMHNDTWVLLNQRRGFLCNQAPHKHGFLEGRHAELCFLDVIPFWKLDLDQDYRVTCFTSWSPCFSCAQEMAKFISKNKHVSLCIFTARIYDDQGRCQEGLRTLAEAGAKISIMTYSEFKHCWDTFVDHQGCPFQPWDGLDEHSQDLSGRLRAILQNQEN

For the compound `Cc1cc2nc(CSc3ccc(Cl)cc3)cc(O)n2n1`, the IC50 (in the assay on HEK293 [1]; in assay [2]) was > 67.6 µM (inactive) each time.

As to `O=C(Nc1ncccc1O)c1ccc(S(=O)(=O)Nc2ccccc2)cc1`, the IC50 in the assay with HEK293 [1] is > 0.00338 µM (active); in assay [2] it was > 67.6 µM (inactive). For the same compound, the half-maximal effective concentration (EC50) in assay [3] was 12.2 µM (active); in the assay with H4, 22.9 µM (active); in the assay “cells [4]”, > 350 µM (not active); in the assay “cells [5]”, 23.3 µM (active); in [6], 19.9 µM (active).

On to `CC1=NC(=O)C(N=Nc2cccc(C(=O)O)c2)N1c1ccccc1` (stereo not given), for which the concentration for a half-maximal effect (EC50) was > 50 µM (not active) with HT-1080 and 0.67 µM (active) in assay [8]. For the same compound, the IC50 is 4.74 µM (active) in assay [7] and 6.48 µM (active) in assay [10]. The AC50 in assay [9] was 8.62 µM (active).

With `Cc1cc(NC(=O)c2ccc([N+](=O)[O-])o2)cc(-c2nc3ccccc3o2)c1O`, the IC50 with HEK293 [11] is > 80 µM (inactive); with HEK293 [12], > 80 µM (inactive); with Jurkat, 3.42 µM (active).

Take `Oc1[nH]c2ccccc2c1/C=N/c1ccccc1`: the IC50 (in the assay with HEK293 [1]; in assay [2]) was > 67.5 µM (inactive) throughout. For the same compound, the EC50 in [13] is > 67.5 µM (inactive).
